One data set relates to IL-2. As to the kind of experiment: IL-2 assay (ELISA of culture supernatant). The following applies: anti-CD3 mAb stimulation, biliverdin 50 or 100 μM. The class given is cell-based, mouse. On the procedure:
IL-2 assay. B6AF1 leukocytes (2.5×10^5 cells/well) were stimulated by anti-CD3 mAb (1 μg/ml), and cultured in 96 well round bottom plates with or without biliverdin (50 or 100 μM). Forty-eight hours later, culture supernatant (100 μl) was collected and stored at −80° C. until use. All cultures were performed in triplicates. IL-2 levels in the supernatants were measured by enzyme-linked immunosorbent assays (ELISA) using an IL-2 assay kit (Quantikine® M, R&D Systems, Inc), following kit instructions. Measurements of each supernatant sample for IL-2 were performed in duplicate. The experiment was repeated 4 times.

For data set [1], the system named is neointimal formation in carotid arteries. Briefly: Carotid balloon injury model, neointimal formation. The class given is in vivo, Lewis Rats. The following applies: 14 days. From the text:
Animals. Adult male Lewis Rats (LEW/CrlBR; Charles River Laboratories, Wilmington, Mass.) weighing 350-400 g were used in the balloon injury model. Animals were housed in accordance with the guidelines from the American Association for Laboratory Animal Care and research protocols were approved by the institutional animal care and use committee of the Beth Israel Deaconess Medical Center, Boston, Mass.
Balloon Injury model. After the exposure of the left common carotid and the left external carotid arteries, a 2F Fogarty catheter (Edwards Lifesciences LLC, Irvine, Calif.) was introduced via the external carotid artery and was advanced into the left common carotid artery, inflated to 2 atmospheres of pressure and pulled back to the point of bifurcation, then deflated. This procedure was repeated three times.
Experimental reagents and design. […]
Histomorphometric analysis. […] Images were analyzed by manual segmentation, tracing intima and media in each section. Areas and diameters were calculated by digital imaging software (AxioVision™, Carl Zeiss, Jena, Germany) as number of pixels corresponding to those areas and diameters. […] 24 sections from each group were statistically analyzed with StatView® software version 5.0 using ANOVA.

The next data set deals with fulminant hepatitis. Briefly: TNF-α/D-Galactosamine hepatitis model, serum ALT. The class given is in vivo, mice (C57BL/6J). On the procedure:
Male mice (C57BL/6J) were administered biliverdin ([…], i.p.) 16 hours and 1 hour prior to i.p. injection of a cocktail including 0.3 ug/mouse TNF-α (mouse TNF-α; Gibco) and 250 mg/kg, i.p. D-Galactosamine (Sigma), which induces fulminant hepatitis within 6-10 hours. Control mice received PBS vehicle. Serum samples were taken via cardiac puncture 6-8 hours later and analyzed for alanine aminotransferase (ALT) per an ALT assay kit from Sigma Chem. Co. following the manufacturer's directions.

On the set-up of data set [2]: species or system LEW rats. To be noted: rat, in vivo, ip. On the procedure:
Serum bilirubin levels and BVR expression in the graft. To assess how fast injected biliverdin (BV) is metabolized into bilirubin, sequential serum bilirubin levels were analyzed. Before BV treatment, serum bilirubin levels were undetectable. Thirty minutes after BV injection i.p., serum bilirubin levels reached a peak of 1.07±0.5 mg/dl compared to those of normal animals. By 2 hours after injection i.p., bilirubin levels returned to normal.

Data set [3] deals with MPO positive cells in intestinal muscularis. As to the kind of experiment: Leukocyte recruitment into intestinal muscularis (MPO histochemistry). The class given is in vivo, LEW rats. On the procedure: Small Intestinal Transplantation. Orthotopic small intestinal transplantation (SITx) was performed in syngeneic Lewis rats. SITx with caval drainage was performed using a previously described procedure (Murase et al., in Handbook of Animal Models in Transplantation Research, Cramer et al., Eds. CRC Press, Boca Raton, Fla., pp. 203-213 (1994)). […] The graft was perfused via the aortic segment with 5 ml chilled Ringer's lactate solution, and the intestinal lumen was irrigated with 20 ml of cold saline solution containing 0.5% neomycin-sulfate (Sigma, St. Louis, Mo.). End-to-side anastomoses between the graft aorta and the recipient infrarenal aorta, and between the graft portal vein and recipient vena cava, were performed with 10-0 Novafil™ suture. The cold ischemic time was 1 hour. The entire recipient intestine was removed and the enteric continuity was restored by proximal and distal end-to-end intestinal anastomoses. Recipient animals were given 20 mg/day prophylactic cefamandole nafate for 3 postoperative days. Transplanted recipients were given water 3 hours after surgery, and were fed 24 hours after surgery.
Leukocyte Recruitment. […] Myeloperoxidase (MPO) activity, as determined by Hanker-Yates histochemistry, was used to quantify the polymorphonuclear neutrophil (PMN) infiltrate in tissues from control and transplanted animals, with and without BV treatment. […]

The results in this text go back to patent publication US8097585B2, “Methods of treating inflammation by administration of heme oxygenase-1 and products of heme degradation” (priority 2002, dated 2012).

Where a name gives a salt, the structure may show the parent alone.

For `C=CC1=C(C)/C(=C/C2=NC(=C\c3[nH]c(/C=C4\NC(=O)C(C)=C4C=C)c(C)c3CCC(=O)O)/C(CCC(=O)O)=C2C)NC1=O` [biliverdin, biliverdin dihydrochloride], the “IL-2 production by splenocytes” value with IL-2 is reported as “significantly suppressed in a dose-dependent manner”. Besides, the “neointimal formation after balloon injury” value in data set [1] (local pre-treatment, instilled into common carotid artery for one hour) is on record as “significantly inhibits neointimal formation”. Further, the “neointimal formation after balloon injury” value in data set [1] (systemic treatment, 50 μmol/kg i.p. at two time points) is on record as “significantly inhibits neointimal formation”. Also, the “serum ALT” value in the data set with fulminant hepatitis (6-8 hours after TNF-α/D-Galactosamine, control about 1000, normal 20-30) is approximately 100 IU/ml. For the same compound, the “reduction of serum ALT levels compared to vehicle treated controls” value in the data set with fulminant hepatitis (biliverdin 50 mmol/kg i.p. 16 hours and 1 hour prior to TNF-α/D-Galactosamine) was “more than 90%”. Also, in data set [2] (LEW), the “peak serum bilirubin level” value turned out to be 1.07 ± 0.5 mg/dL and the “time for bilirubin levels to return to normal” value was not above 2 h. The “time to peak serum bilirubin” value in data set [2] was “Thirty”. For the same compound, the “mean number of MPO positive cells” value in data set [3] (24 hours after SITx) is “significantly decreased”. In data set [3] (BV injection into normal animals), the MPO positive cells was found to be 3.9±1.3 cells per ×200 field.
